The source made the active and inactive calls.
Key:
Cytochrome P450 1A2 = biological target: T1, Cytochrome P450 1A2 (Homo sapiens, UniProt P05177);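 further: PubChem cytochrome P450 panel assay, CYP1A2 panel member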
T1 sequence (P05177 whole entry): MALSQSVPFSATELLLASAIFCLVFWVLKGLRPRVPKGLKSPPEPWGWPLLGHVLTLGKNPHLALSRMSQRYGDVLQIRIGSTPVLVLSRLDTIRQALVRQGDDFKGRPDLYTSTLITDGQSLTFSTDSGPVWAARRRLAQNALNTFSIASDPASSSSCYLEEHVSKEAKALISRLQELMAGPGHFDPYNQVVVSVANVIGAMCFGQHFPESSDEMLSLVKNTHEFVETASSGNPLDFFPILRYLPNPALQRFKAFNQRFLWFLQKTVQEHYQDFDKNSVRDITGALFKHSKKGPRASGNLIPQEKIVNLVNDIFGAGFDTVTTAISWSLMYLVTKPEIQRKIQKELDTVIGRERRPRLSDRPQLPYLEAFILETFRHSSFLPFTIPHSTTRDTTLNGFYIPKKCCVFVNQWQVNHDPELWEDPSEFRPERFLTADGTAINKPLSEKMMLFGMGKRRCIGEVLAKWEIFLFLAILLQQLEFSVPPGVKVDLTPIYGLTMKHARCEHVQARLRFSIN

Cytochrome P450 3A4 = Cytochrome P450 3A4 (Homo sapiens, UniProt P08684);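 further: CYP3A4 tested as one member of a cytochrome P450 panel screen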
Chain of Cytochrome P450 3A4 (P08684 whole entry): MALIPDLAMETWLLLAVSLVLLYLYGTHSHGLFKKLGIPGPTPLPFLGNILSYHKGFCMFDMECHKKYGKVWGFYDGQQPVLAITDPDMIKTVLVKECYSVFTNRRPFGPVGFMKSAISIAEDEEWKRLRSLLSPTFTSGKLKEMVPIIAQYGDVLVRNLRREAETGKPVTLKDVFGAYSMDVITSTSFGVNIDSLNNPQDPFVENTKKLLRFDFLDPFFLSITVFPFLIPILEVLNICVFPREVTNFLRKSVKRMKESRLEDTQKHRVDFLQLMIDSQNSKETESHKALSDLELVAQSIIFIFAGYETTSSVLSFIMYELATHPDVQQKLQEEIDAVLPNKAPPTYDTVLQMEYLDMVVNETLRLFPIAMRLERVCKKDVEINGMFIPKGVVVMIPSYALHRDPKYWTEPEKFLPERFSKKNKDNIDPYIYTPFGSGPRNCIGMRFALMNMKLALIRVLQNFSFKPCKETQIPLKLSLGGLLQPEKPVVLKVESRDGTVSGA

[1] = biological target: Dual specificity tyrosine-phosphorylation-regulated kinase 1A (Rattus norvegicus, UniProt Q63470); format: biochemical, Homo sapiens; conditions: read-out: AC50
Vero [2] = assay: cells; format: functional; conditions: Chlorocebus sabaeus
Vero [3] = assay: cells; format: functional, cell-based; conditions: Chlorocebus sabaeus
Cytochrome P450 2C9 = Cytochrome P450 2C9 (Homo sapiens, UniProt P11712)
Chain of Cytochrome P450 2C9 (P11712 whole entry): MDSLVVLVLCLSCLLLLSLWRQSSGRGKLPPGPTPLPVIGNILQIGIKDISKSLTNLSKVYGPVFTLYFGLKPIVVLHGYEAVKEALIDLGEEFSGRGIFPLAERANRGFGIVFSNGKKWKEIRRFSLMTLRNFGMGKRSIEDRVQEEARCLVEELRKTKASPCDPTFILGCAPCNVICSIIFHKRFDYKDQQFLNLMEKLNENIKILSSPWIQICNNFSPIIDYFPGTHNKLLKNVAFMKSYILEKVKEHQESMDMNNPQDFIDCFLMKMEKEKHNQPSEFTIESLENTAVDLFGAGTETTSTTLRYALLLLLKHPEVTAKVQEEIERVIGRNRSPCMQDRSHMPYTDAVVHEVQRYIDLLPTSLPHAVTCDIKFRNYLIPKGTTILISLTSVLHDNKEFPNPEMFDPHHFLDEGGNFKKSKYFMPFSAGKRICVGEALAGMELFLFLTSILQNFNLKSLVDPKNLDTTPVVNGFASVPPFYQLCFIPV

[4] = biological target: T2, Calpain-2 catalytic subunit (Sus scrofa, UniProt P43367); assay: m-calpain protease blockers, concentration series – biochemical, fluorogenic peptide substrate, dose response (AID 1420); format: functional
T2 sequence (P43367 whole entry): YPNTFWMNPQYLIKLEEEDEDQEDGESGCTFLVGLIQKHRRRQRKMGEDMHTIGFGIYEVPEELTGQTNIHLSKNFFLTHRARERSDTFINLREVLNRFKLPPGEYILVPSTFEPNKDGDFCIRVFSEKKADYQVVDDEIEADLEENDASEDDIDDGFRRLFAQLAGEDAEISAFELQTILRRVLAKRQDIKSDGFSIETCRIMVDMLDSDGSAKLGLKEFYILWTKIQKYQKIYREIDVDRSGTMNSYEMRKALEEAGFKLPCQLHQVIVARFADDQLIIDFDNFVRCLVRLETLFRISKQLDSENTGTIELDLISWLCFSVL

HEK293 [5] = assay: cells; conditions: Homo sapiens
HEK293 [6] = assay: cells; conditions: Homo sapiens; remark: listed apart in the source
HEK293 [7] = assay: cells; format: functional, cell-based; conditions: Homo sapiens
HEK293 [8] = assay: inhibition of NOD1-driven NF-kB reporter – cell-based, luminescence, uHTS, primary screen (AID 1578); format: functional; conditions: Homo sapiens
HEK293 [9] = assay: NOD2 signaling inhibitors in MDP-stimulated cells, cell-based, uHTS, luminescence (AID 2001); format: functional; conditions: Homo sapiens
HEK293 [10] = assay: cells; format: functional, cell-based; conditions: Homo sapiens; remark: listed apart in the source
HEK293 [11] = assay: cells; conditions: Homo sapiens; remark: listed apart in the source
Tumor necrosis factor = Tumor necrosis factor (Homo sapiens, UniProt P01375); assay: analog potency on TNFa NF-kB signaling – cell-based, revised, SAR follow-up (AID 2337); format: functional
Chain of Tumor necrosis factor (P01375 whole entry, the tested form may be a part): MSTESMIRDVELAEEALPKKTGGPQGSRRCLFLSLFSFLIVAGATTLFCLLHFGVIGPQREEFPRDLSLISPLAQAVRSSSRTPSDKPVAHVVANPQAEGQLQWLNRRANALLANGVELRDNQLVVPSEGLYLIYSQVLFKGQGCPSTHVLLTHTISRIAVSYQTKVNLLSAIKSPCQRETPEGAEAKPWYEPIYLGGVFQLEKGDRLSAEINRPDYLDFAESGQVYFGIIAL

[12] = biological target: T3, Nucleotide-binding oligomerization domain-containing protein 1 (Homo sapiens, UniProt Q9Y239); assay: blockers of NOD1 pathway activity – revised, SAR follow-up (AID 2333); format: functional
T3 sequence (Q9Y239 whole entry): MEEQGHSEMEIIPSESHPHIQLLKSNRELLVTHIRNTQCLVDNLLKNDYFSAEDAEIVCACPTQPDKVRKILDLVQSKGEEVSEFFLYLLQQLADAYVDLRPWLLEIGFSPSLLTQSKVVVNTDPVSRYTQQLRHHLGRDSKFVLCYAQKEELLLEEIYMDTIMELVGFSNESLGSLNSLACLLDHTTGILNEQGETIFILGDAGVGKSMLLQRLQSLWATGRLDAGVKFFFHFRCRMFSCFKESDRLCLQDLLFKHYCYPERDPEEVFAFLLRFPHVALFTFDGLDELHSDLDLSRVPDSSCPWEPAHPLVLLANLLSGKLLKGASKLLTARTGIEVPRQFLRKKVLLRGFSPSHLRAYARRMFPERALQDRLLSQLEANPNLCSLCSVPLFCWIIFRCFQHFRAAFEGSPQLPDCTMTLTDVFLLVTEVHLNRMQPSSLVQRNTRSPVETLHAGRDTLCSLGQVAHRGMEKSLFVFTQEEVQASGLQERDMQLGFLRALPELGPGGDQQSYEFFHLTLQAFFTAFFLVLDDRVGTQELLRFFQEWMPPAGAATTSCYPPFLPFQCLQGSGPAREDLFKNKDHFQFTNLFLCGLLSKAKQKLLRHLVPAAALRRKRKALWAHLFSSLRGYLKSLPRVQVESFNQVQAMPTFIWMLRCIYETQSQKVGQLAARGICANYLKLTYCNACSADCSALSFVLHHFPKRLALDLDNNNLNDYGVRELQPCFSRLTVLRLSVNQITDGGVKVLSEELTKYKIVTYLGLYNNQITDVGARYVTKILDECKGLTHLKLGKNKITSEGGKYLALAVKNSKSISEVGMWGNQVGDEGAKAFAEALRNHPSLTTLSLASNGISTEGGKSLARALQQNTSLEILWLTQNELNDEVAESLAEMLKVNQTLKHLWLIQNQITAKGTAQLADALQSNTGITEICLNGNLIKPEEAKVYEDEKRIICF

[13] = biological target: T4, Carboxy-terminal domain RNA polymerase II polypeptide A small phosphatase 1 (Homo sapiens, UniProt Q9GZU7); assay: CTDSP1 inhibitors, concentration-response, biochemical, absorbance readout, ultra-high-throughput screen actives (AID 540297); format: functional
T4 sequence (Q9GZU7 whole entry): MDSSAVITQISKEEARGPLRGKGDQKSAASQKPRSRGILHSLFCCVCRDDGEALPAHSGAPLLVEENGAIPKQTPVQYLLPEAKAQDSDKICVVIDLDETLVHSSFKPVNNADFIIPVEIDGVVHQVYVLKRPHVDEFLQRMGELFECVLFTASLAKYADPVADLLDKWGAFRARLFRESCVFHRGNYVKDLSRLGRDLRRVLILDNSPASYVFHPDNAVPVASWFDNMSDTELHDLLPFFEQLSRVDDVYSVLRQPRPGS

[14] = biological target: T5, Rac GTPase-activating protein 1 (Homo sapiens, UniProt Q9H0H5); assay: blockers of MgcRacGAP-driven Rac1 GTP hydrolysis – biochemical, ADP Hunter fluorescence, primary and confirmatory, confirmation (AID 624330); format: functional
T5 sequence (Q9H0H5 whole entry): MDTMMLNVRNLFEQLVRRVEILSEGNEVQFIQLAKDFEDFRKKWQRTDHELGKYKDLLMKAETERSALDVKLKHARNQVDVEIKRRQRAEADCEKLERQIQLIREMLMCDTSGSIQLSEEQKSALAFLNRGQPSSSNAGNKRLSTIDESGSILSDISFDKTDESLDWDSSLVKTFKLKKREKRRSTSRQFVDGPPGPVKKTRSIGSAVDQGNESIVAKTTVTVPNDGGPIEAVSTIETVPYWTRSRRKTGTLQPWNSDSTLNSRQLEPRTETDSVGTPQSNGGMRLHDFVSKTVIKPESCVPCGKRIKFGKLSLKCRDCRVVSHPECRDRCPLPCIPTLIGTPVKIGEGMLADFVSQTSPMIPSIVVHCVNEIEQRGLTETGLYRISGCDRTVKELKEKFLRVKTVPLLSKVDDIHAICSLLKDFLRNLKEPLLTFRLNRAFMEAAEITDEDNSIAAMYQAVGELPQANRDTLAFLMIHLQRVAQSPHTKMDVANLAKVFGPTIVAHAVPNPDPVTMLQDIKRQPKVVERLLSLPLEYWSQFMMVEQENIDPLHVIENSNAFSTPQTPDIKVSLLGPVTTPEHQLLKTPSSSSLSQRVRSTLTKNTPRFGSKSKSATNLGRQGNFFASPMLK

Question: What does the source list for `Cc1c(-c2ccc(F)cc2)nc(N)c(C#N)c1-c1cccs1`?
Answer: AC50 (Cytochrome P450 1A2): 1.78 µM (inconclusive); AC50 (Cytochrome P450 3A4): inconclusive

Question: How did the AC50 [1] turn out when `O=C(Nc1cccc(-c2nc3ncccc3o2)c1)c1cc2ccccc2o1` was run?
Answer: The AC50 was 0.942 µM (active).

Question: Which results are given for `Cc1cccnc1NC(=O)NC(=O)c1ccc(C(C)(C)C)s1`?
Answer: CC50 (Vero [2]): > 25 µM (active); IC50 (Vero [3]): 22.4 µM (active)

Question: Which AC50 (Cytochrome P450 2C9) does the source give for `O=C(c1cccc(F)c1)N1CCC2(CC1)CCN(c1ccncc1)CC2` here?
Answer: Its AC50 is 25.1 µM (inconclusive).

Question: What about the AC50 (Cytochrome P450 3A4) of the same compound?
Answer: Its AC50 is “inconclusive”.

Question: How did the IC50 [4] turn out when `O=C(NC1CCCC1)C(c1ccsc1)N(Cc1ccccc1)C(=O)Cc1cccs1` (centres undefined) was run?
Answer: Its IC50 is > 50 µM (not active).

Question: What about the EC50 (HEK293 [5]) of the same compound?
Answer: The EC50 was > 59.7 µM (inactive).

Question: And the EC50 (HEK293 [6])?
Answer: The EC50 was > 59.7 µM (inactive).

Question: With `COc1ccc(C(O)P(=O)(OC(C)C)OC(C)C)cc1OC` (centres undefined) as the compound, how does the AC50 (Cytochrome P450 1A2) read?
Answer: Its AC50 is 11.2 µM (inconclusive).

Question: And the AC50 (Cytochrome P450 3A4)?
Answer: The AC50 was “inconclusive”.

Question: `COc1ccc(N2CCN(S(=O)(=O)c3ccc4c(c3)NC(=O)C(C)S4)CC2)cc1` (centres undefined) was tested. Which IC50 (HEK293 [7]) did it give?
Answer: The IC50 was 4.28 µM (active).

Question: And the EC50 (HEK293 [8])?
Answer: The EC50 was 4.87 µM (active).

Question: What about the IC50 (HEK293 [9]) of the same compound?
Answer: The IC50 was 7.5 µM (active).

Question: What about the IC50 (HEK293 [10]) of the same compound?
Answer: Its IC50 is 12.6 µM (active).

Question: What about the IC50 (HEK293 [11]) of the same compound?
Answer: The IC50 was > 20 µM (inactive).

Question: And the IC50 (Tumor necrosis factor)?
Answer: The IC50 was 10.2 µM (active).

Question: What about the IC50 [12] of the same compound?
Answer: Its IC50 is 4.54 µM (active).

Question: Which AC50 [1] does the source give for `Cn1c2ccccc2c(=O)c2ccc(C#CC3(N)CCCCC3)cc21` here?
Answer: Its AC50 is 23.7 µM (active).

Question: How did the IC50 [13] turn out when `N#CCC(=O)Nc1ccc(C(=O)OCC(=O)Nc2ccc3ccccc3c2)cc1` was run?
Answer: Its IC50 is 68.5 µM (active).

Question: With `O=C1OC(c2ccc3c(c2)OCO3)=N/C1=C\c1ccc(C(=O)O)cc1` as the compound, how does the IC50 [13] read?
Answer: Its IC50 is 1.38 µM (active).

Question: How did the EC50 (HEK293 [5]) turn out when `CC(C)OP(=O)(c1ccc(N(C)C)cc1)C(Nc1ccccc1)c1ccccc1` (centres undefined) was run?
Answer: The EC50 was > 59.6 µM (inactive).

Question: And the EC50 (HEK293 [6])?
Answer: The EC50 was > 59.6 µM (inactive).

Question: `COc1nc(N)nc(NC(=O)c2cccs2)c1N=O` was tested. Which EC50 (HEK293 [5]) did it give?
Answer: Its EC50 is > 59.6 µM (inactive).

Question: What about the IC50 [14] of the same compound?
Answer: Its IC50 is 116 µM (active).

Question: What about the EC50 (HEK293 [6]) of the same compound?
Answer: The EC50 was > 59.6 µM (inactive).

Question: What does the source list for `CN(C)N=Nc1nc2c(c(=O)n(C)c(=O)n2C)n1CC1CO1` (centres undefined)?
Answer: CC50 (Vero [2]): > 25 µM (active); IC50 (Vero [3]): 21.9 µM (active)

Question: How did the EC50 (HEK293 [5]) turn out when `COc1ccc(OC(F)(F)F)cc1CC1(C)C(=O)Nc2ccc(S(=O)(=O)NC3CCCCC3)cc21` (centres undefined) was run?
Answer: The EC50 was > 59.6 µM (inactive).

Question: What about the EC50 (HEK293 [6]) of the same compound?
Answer: The EC50 was > 59.6 µM (inactive).

Question: For `O=C(/C=C/c1ccccc1O)c1ccc(Cl)cc1`, which CC50 (Vero [2]) is on record?
Answer: Its CC50 is 19.6 µM (active).

Question: Which IC50 [13] does the source give for `COc1ccc(/C=N/Nc2ncc(Br)cn2)c(OC)c1` here?
Answer: The IC50 was 19.6 µM (active).

Question: How did the AC50 [1] turn out when `COc1ccc(-c2coc3cc(O)ccc3c2=O)cc1O` [CALYCOSIN] was run?
Answer: Its AC50 is 16.1 µM (active).

Source: ChEMBL document CHEMBL1201862, “PubChem BioAssay data set” (2004)
